Experimental data reported in patent publication US20090312294A1, “Method and Agent for Reducing Weight, Accelerating Lipid Catabolism, and/or Restricting Calories” (priority 2006, published 2009).
“And” between values parts separate entries of the source, which are not always exact repeats. Equal values may be shown once.

Test: Clinical study on the action of the formulations for weight reduction
Assay type: in vivo, human
Details: body weight per patient; postmenopausal women aged 52-59; 100 mg chrysin daily after lunch for 5 days; each table row is one patient
Method: Eight women between 52 and 59 in age who were hormonally in postmenopause and despite an activity program and targeted nutrition observed no change in weight, took 100 mg of chrysin for 5 days. This dose is under the dosages of any formulations which are offered as food supplements. After a further 5 days, the patients were advised, in order to excite the conversion of peripheral […], to take additionally 100 mg of cholic acid as supplement. Intake proceeded in each case at midday after lunch.

## O=c1cc(-c2ccccc2)oc2cc(O)cc(O)c12 [chrysin]
  kg after 5 days of 100 mg of chrysin: 73.5 kg and 69.5 kg (2×) and 65 kg and 71 kg and 78 kg and 70.2 kg and 67 kg
